According to US8614206B2 (Genentech, Inc., priority 2011, dated 2013):

Target: PIM1 (Homo sapiens (Human), UniProt P11309)
Experiment: Pim kinase inhibition, PIM1 LC3K (Example 901)
Type: biochemical
Excerpt: Determination of the Pim kinase activity of a Formula I compound is possible by a number of direct and indirect detection methods.

Sequence of PIM1 (P11309 whole entry): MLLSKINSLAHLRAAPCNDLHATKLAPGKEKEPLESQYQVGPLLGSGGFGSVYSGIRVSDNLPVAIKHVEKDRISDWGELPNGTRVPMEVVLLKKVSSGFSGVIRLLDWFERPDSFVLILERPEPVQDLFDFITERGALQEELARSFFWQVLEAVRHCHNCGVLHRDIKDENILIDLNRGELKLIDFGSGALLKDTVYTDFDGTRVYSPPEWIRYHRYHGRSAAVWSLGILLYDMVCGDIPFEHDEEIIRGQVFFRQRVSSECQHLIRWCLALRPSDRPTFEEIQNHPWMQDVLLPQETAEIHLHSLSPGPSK

| Structure (SMILES) | Ki |
| --- | --- |
| Cn1ncc(NC(=O)c2nc(-c3ncccc3F)sc2N)c1N1CC[C@@H](N)[C@H](F)CC1 [Example 268, 5-amino-N-(5-((4R,5R)-4-amino-5-fluoroazepan-1-yl)-1-methyl-1H-pyrazol-4-yl)-2-(3-fluoropyridin-2-yl)thiazole-4-carboxamide] | 0.186 nM |
| Cn1ncc(NC(=O)c2nc(-c3ncccc3F)sc2N)c1N1CC[C@H](N)[C@@H](F)CC1 [Example 269, 5-amino-N-(5-((4S,5S)-4-amino-5-fluoroazepan-1-yl)-1-methyl-1H-pyrazol-4-yl)-2-(3-fluoropyridin-2-yl)thiazole-4-carboxamide] | 0.091 nM |
| Cc1ccc(F)c(-c2nc(C(=O)Nc3cnn(C)c3N3CC[C@@H](F)[C@@H](N)CC3)c(N)s2)c1 [Example 272, 5-amino-N-(5-((4S,5R)-4-amino-5-fluoroazepan-1-yl)-1-methyl-1H-pyrazol-4-yl)-2-(2-fluoro-5-methylphenyl)thiazole-4-carboxamide] | 0.147 nM |
| Nc1sc(-c2c(F)cccc2F)nc1C(=O)Nc1cnn(CC(F)F)c1N1CC[C@@H](N)CC(F)(F)C1 [Example 281] | 0.02 nM |
| Cn1ncc(NC(=O)c2nc(-c3cc(F)ccc3F)sc2N)c1N1CC[C@@H](N)CC(F)(F)C1 [Example 283, (R)-5-amino-N-(5-(5-amino-3,3-difluoroazepan-1-yl)-1-methyl-1H-pyrazol-4-yl)-2-(2,5-difluorophenyl)thiazole-4-carboxamide] | 0.008 nM |
| Cc1ccc(F)c(-c2nc(C(=O)Nc3cnn(C)c3N3CC[C@H](N)CC(F)(F)C3)c(N)s2)c1 [Example 284, (S)-5-amino-N-(5-(5-amino-3,3-difluoroazepan-1-yl)-1-methyl-1H-pyrazol-4-yl)-2-(2-fluoro-5-methylphenyl)thiazole-4-carboxamide] | 0.015 nM |
| C[C@H]1CN(c2c(NC(=O)c3nc(-c4c(F)cccc4F)sc3N)cnn2CC(F)(F)F)CCN1 [Example 301, (S)-5-Amino-2-(2,6-difluorophenyl)-N-(5-(3-methylpiperazin-1-yl)-1-(2,2,2-trifluoroethyl)-1H-pyrazol-4-yl)thiazole-4-carboxamide] | 2.1 nM |

Continued, values first:

| Ki | Structure (SMILES) |
| --- | --- |
| 0.038 nM | Cc1ccc(F)c(-c2nc(C(=O)Nc3cnn(C)c3N3CC[C@@H](N)[C@@H](F)CC3)c(N)s2)c1 [Example 265, 5-amino-N-(5-((4R,5S)-4-amino-5-fluoroazepan-1-yl)-1-methyl-1H-pyrazol-4-yl)-2-(2-fluoro-5-methylphenyl)thiazole-4-carboxamide] |
| 0.253 nM | Cn1ncc(NC(=O)c2nc(-c3cc(F)ccc3F)sc2N)c1N1CC[C@@H](F)[C@@H](N)CC1 [Example 266, 5-amino-N-(5-((4S,5R)-4-amino-5-fluoroazepan-1-yl)-1-methyl-1H-pyrazol-4-yl)-2-(2,5-difluorophenyl)thiazole-4-carboxamide] |
| 0.058 nM | Cn1ncc(NC(=O)c2nc(-c3cc(F)ccc3F)sc2N)c1N1CC[C@@H](N)[C@@H](F)CC1 [Example 271, 5-amino-N-(5-((4R,5S)-4-amino-5-fluoroazepan-1-yl)-1-methyl-1H-pyrazol-4-yl)-2-(2,5-difluorophenyl)thiazole-4-carboxamide] |
| 0.004 nM | Cn1ncc(NC(=O)c2nc(-c3cc(F)ccc3F)sc2N)c1N1CC[C@H](N)CC(F)(F)C1 [Example 282, (S)-5-amino-N-(5-(5-amino-3,3-difluoroazepan-1-yl)-1-methyl-1H-pyrazol-4-yl)-2-(2,5-difluorophenyl)thiazole-4-carboxamide] |
| 0.018 nM | Cc1ccc(F)c(-c2nc(C(=O)Nc3cnn(C)c3N3CC[C@@H](N)CC(F)(F)C3)c(N)s2)c1 [Example 285] |
| 0.175 nM | Nc1sc(-c2c(F)cccc2F)nc1C(=O)Nc1cnn(CC(F)(F)F)c1N1CCCCC(N)C1 (stereo not shown) [Example 302, 5-Amino-2-(2,6-difluoro-phenyl)-thiazole-4-carboxylic acid [5-(3-amino-azepan-1-yl)-1-(2,2,2-trifluoro-ethyl)-1H-pyrazol-4-yl]-amide] |
